Read-outs that look alike come from different tables or passages of the source.
Legend:
[1] = biological target: T1, βA(1-40) amyloid aggregates (Homo sapiens, UniProt P05067); experiment: Competition assay with Thioflavin T (ThT) for binding to β(1-40) amyloid aggregates, fluorescence 96-well plate
T1 construct: lyophilized β(1-40) protein powder (which may be purchased from BACHEM); purchased BACHEM
Description: Amyloid aggregates containing β(1-40) protein can also be made by methods well known to those skilled in the art. See, for example, Burdick D., Soreghan B., Kwon M., Kosmoski J., Knauer M., Henschen A., Yates J., Cotman C., and Glabe C. Assembly and aggregation properties of synthetic Alzheimer's A4/β amyloid peptide analogs. J. Biol. Chem., 267:546-554 (1992), which is hereby incorporated by reference. Briefly, lyophilized β(1-40) protein powder (which may be purchased from BACHEM) was dissolved at 10 mg/mL in hexafluoro-2-propanol and subsequently diluted to 500 μg/mL in 25 mM sodium phosphate buffer, pH 6 to induce the α-helix to β-sheet transition resulting in aggregate formation.
(§1) The ability of compounds of Formula I to compete with Thioflavin T (ThT) for binding to amyloid aggregates was measured using fluorescence in a 96-well fluorescence plate assay. As a compromise between sensitivity and signal and to facilitate comparisons between different amyloid fibrils, ThT is present at a concentration equal to the Kmapp of the particular amyloid fibril type and fibril concentrations yielding a similar fluorescence intensity are used. Insulin: 0.5 μM ThT, 2 μg per well. β(1-40): 20 μM ThT, 5 μg/well. All solutions are in 25 mM sodium phosphate buffer, pH 6.0, and the assay is performed at room temperature.
(§2) Using a multichannel pipettor, 100 μL of dilutions of the compound to be tested (0.001-30 μM final concentration in 3-fold steps) are placed in the bottom of Corning U-well polystyrene plates (Corning Company, Corning, N.Y.). 50 μL of ThT are then added to each well. The amyloid fibrils are then added to each well in a volume of 100 μL rapidly to mix the well contents. The plates are read within 5 to 30 minutes in a Millipore Cytofluor 2350 96-well fluorescence plate reader using an excitation filter of 440 nm (20 nm bandpass) and an emission filter of 485 nm (20 nm bandpass). ThT dye blanks were used to correct for the minimal fluorescence background which are subtracted from all data.
(§3) Results are expressed as % maximal fluorescence (no competing compound). […]

[2] = biological target: Insulin amyloid aggregates; experiment: Competition assay with Thioflavin T (ThT) for binding to insulin amyloid aggregates, fluorescence 96-well plate; settings: 0.5 μM ThT, 2 μg per well fibrils, 25 mM sodium phosphate pH 6.0, room temperature
Experimental: Burke M. J. and Rougevie M. A., Cross-β Protein Structures. I. Insulin Fibrils. […] Briefly, lyophilized insulin protein powder dissolved at 10 mg/mL in 50 mM HCl was alternately heated to 95° C. and frozen in dry ice to form amyloid aggregates.
as §1
as §2, with “The plates are read within 5 to 30 minutes in a Millipore Cytofluor 2350 96-well fluorescence plate reader using an excitation filter of 440 nm (20 nm bandpass) and an emission filter of 485 nm (20 nm bandpass).” left out
as §3

[3] = 20 μM ThT, 5 μg/well fibrils, 25 mM sodium phosphate pH 6.0, room temperature, read-out: βA(1-40), IC50

T1 sequence (P05067 672-711 limits assumed): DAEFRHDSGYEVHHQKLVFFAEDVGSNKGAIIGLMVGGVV

Compound	IC50 [1, 3] [nM]	IC50 [2] [nM]	IC50 [1] [nM]
Cc1ccc2c(c1)sc(/C=C/c1ccc(N(C)C)cc1)[n+]2C [Example 17, (E)-2-[2-(4-Dimethylaminophenyl)vinyl]-3,6-dimethylbenzothiazol-3-ium iodide]	180	6	
CN(C)c1ccc(/C=C/c2nc3cc(Cl)ccc3s2)cc1 [Example 1, (E)-{4-[2-(5-Chlorobenzothiazol-2-yl)vinyl]phenyl}dimethylamine]	> 100000	100000	
Cc1ccc2sc(/C=C/c3ccc(N(C)C)cc3)[n+](C)c2c1 [Example 16, (E)-2-[2-(4-Dimethylaminophenyl)vinyl]-3,5-dimethylbenzothiazol-3-ium iodide]	400	7.5	
CN(C)c1ccc(N=Nc2sc3ccccc3[n+]2C)cc1 [Example 54, 2-[[4-(Dimethylamino)phenyl]azo]-3-methylbenzothiazolium methylsulfate]	1300	60	
CN(C)c1ccc(/C=C/c2sc3ccccc3[n+]2Cc2ccc(F)cc2)cc1 [Example 25, (E)-2-[2-(4-Dimethylaminophenyl)vinyl]-3-(4-fluorobenzyl)benzothiazol-3-ium bromide]		42	120
CN(C)c1ccc(/C=C/c2sc3ccc4ccccc4c3[n+]2C)c2ccccc12 [Example 42, (E)-2-[2-(4-Dimethylaminonaphthalen-1-yl)vinyl]-1-methylnaphtho[1,2-d]thiazol-1-ium toluene-4-sulfonate]	250	42	
Cc1ccc2c(c1)sc(/C=C/c1ccc(N(C)C)cc1)[n+]2Cc1ccccc1 [Example 18, (E)-3-Benzyl-2-[2-(4-dimethylaminophenyl)vinyl]-6-methylbenzothiazol-3-ium bromide]		50	130
CN(C)c1ccc(/C=C/c2sc3ccccc3[n+]2Cc2ccc3ccccc3c2)cc1 [Example 27, (E)-2-[2-(4-Dimethylaminophenyl)vinyl]-3-naphthalen-2-ylmethylbenzothiazol-3-ium bromide]		13	120
CCCCCCC[n+]1c(/C=C/c2ccc(N(CCCC)CCCC)cc2)sc2ccccc21 [Example 45, (E)-2-[2-(4-Dibutylaminophenyl)vinyl]-3-heptylbenzothiazol-3-ium iodide]	600	90	
CN(C)c1ccc(/C=C/c2sc3ccccc3[n+]2CCCc2ccccc2)cc1 [Example 31, (E)-2-[2-(4-Dimethylaminophenyl)vinyl]-3-(3-phenylpropyl)benzothiazol-3-ium iodide]	200	210	
CCCCCCC[n+]1c(/C=C/c2ccc(N(CC)CC)cc2)sc2ccccc21 [Example 44, (E)-2-[2-(4-Diethylaminophenyl)vinyl]-3-heptylbenzothiazol-3-ium iodide]	140	120	
CN(C)c1ccc(/C=C/c2sc3cc4ccccc4cc3[n+]2C)cc1 [Example 23, (E)-2-[2-(4-Dimethylaminophenyl)vinyl]-3-methylnaphtho[2,3-d]thiazol-3-ium iodide]	120	120	
CN(C)c1ccc(/C=C/c2sc3ccccc3[n+]2Cc2cccc(C(=O)c3ccccc3)c2)cc1 [Example 29, (E)-3-(3-Benzoylbenzyl)-2-[2-(4-dimethylaminophenyl)vinyl]benzothiazol-3-ium bromide]		130	230

Further lines, with some results ahead:

IC50 [1, 3] [nM]	IC50 [2] [nM]	Compound	IC50 [1] [nM]
410	10	COc1ccc2c(c1)sc(N=Nc1ccc(N(C)C)cc1)[n+]2C [Example 53, 2-[[4-(Dimethylamino)phenyl]azo]-6-methoxy-3-methylbenzothiazol-3-ium methylsulfate]	
120	110	Nc1ccc(/N=N/c2nc3ccccc3s2)c2ccccc12 [Example 48, 4-(Benzothiazol-2-ylazo)naphthalen-1-ylamine]	
120	52	CN(C)c1ccc(/C=C/c2sc3ccccc3[n+]2CCC2CCCCC2)cc1 [Example 38, (E)-3-(2-Cyclohexylethyl)-2-[2-(4-dimethylaminophenyl)vinyl]benzothiazol-3-ium iodide]	
3200	700	COc1ccc2nc(/N=N/c3ccc(N(C)C)cc3)sc2c1 [Example 49, 2-[[4-(Dimethylamino)phenyl]azo]-6-methoxybenzothiazole]	
140	52	CN(C)c1ccc(/C=C/c2sc3ccccc3[n+]2CCCOCc2ccccc2)cc1 [Example 34, (E)-3-(3-Benzyloxypropyl)-2-[2-(4-dimethylaminophenyl)vinyl]benzothiazol-3-ium iodide]	
210	53	CN(C)c1ccc(/C=C/c2[s+]c3ccc4ccccc4c3n2C)cc1 [Example 8, (E)-2-[2-(4-Dimethylaminophenyl)vinyl]-1-methylnaphtho[1,2-d]thiazol-3-ium iodide]	

— patent US6001331A, “Method of imaging amyloid deposits” (Warner-Lambert Company, priority 1998, dated 1999)
